These results are taken from patent publication US20140120060A1, “TREATMENT OF RHEUMATOID ARTHRITIS AND ASTHMA USING PI3 KINASE INHIBITORS” (INFINITY PHARMACEUTICALS, INC., priority 2012, published 2014).

Assay [1] relates to developing adjuvant arthritis. As to the kind of experiment: Freund's complete adjuvant induced rat model of arthritis. The class given is in vivo. The note with it: reference treatment, dose not stated. An excerpt:
Freund's complete adjuvant induced arthritis in the rat is an experimental model of polyarthritis that has been widely used for nonclinical testing of numerous anti-arthritic agents that are either under nonclinical or clinical investigation, or are currently used as therapeutics in this disease.

Another assay deals with B cell. As to the kind of experiment: B cell proliferation. Format: cell-based.

As for `C[C@@H]1C[C@H]2[C@@H]3CCC4=CC(=O)C=C[C@]4(C)[C@@]3(F)[C@@H](O)C[C@]2(C)[C@@]1(O)C(=O)CO` [dexamethasone, reference compound], in assay [1], the “inhibition of ankle diameter AUC (d7-14) increase” value is on record as 71%, the “reduction of histopathologic bone resorption” value came to 97% and the “reduction of histopathologic inflammation” value amounted to 56%.
As usually defined, the EC50 is the concentration giving half of the maximal effect. For the compound `CC(C)n1c(Cn2nc(-c3cc(O)cc(F)c3)c3c(N)ncnc32)cc2cccc(Cl)c2c1=O` [Compound 138], the concentration for a half-maximal effect (EC50) in the assay with B cell is below 100 nM.
In the assay on B cell, `CCn1c(Cn2nc(-c3cccc(O)c3)c3c(N)ncnc32)cc2cccc(C)c2c1=O` [Compound 126] came in with an EC50 below 100 nM.
As for `C=Cc1nn(Cc2cc3cccc(C)c3c(=O)n2-c2ccccc2C)c2ncnc(N)c12` [Compound 180], in the assay with B cell, the 50% effective concentration (EC50) is below 100 nM.
As to `Cc1cccc2cc(Cn3nc(-c4cccc(O)c4)c4c(N)ncnc43)n(C(C)C)c(=O)c12` [Compound 62], the EC50 in the assay on B cell is below 100 nM.
`CCc1ccccc1-n1c(Cn2nc(-c3cc(O)cc(F)c3)c3c(N)ncnc32)cc2cccc(C)c2c1=O` [Compound 89] showed an EC50 in the assay on B cell below 100 nM.
With `Cc1cccc2cc(Cn3nc(-c4cccc(O)c4)c4c(N)ncnc43)n(C3CCCCC3)c(=O)c12` [Compound 111], in the assay on B cell, the EC50 is below 1000 nM.
The compound `Cc1cccc2cc(Cn3nc(-c4ccc5sc(N)nc5c4)c4c(N)ncnc43)n(-c3ccccc3)c(=O)c12` [Compound 277] came in with a 50% effective concentration (EC50) in the assay with B cell below 100 nM.
Still for that read-out and setting: in the case of `Cc1ccncc1-n1c(Cn2nc(I)c3c(N)ncnc32)cc2cccc(C)c2c1=O` [Compound 78] it was below 1000 nM; in that of `CCC(Nc1ncnc2[nH]cnc12)c1cc2cccc(C)c2c(=O)n1-c1ccccc1C` (centres unmarked) [Compound 202], below 100 nM.
The compound `Cc1cccc2cc(Cn3nc(-c4cc(O)cc(F)c4)c4c(N)ncnc43)n(C3CC3)c(=O)c12` [Compound 101] registered an EC50 with B cell below 100 nM.
Still for that read-out and setting: in the case of `CC(=O)Nc1nc2ccc(-c3nn(Cc4cc5cccc(C)c5c(=O)n4C(C)C)c4ncnc(N)c34)cc2s1` [Compound 154] it was below 100 nM; in that of `Cc1cccc2cc(Cn3nc(-c4cccc(O)c4)c4c(N)ncnc43)n(C3CCC3)c(=O)c12` [Compound 114], below 1000 nM.
On the same count and under the same terms, for `Cc1ccccc1-n1c(Cn2nc(-c3ccc4sc(N)nc4c3)c3c(N)ncnc32)cc2cccc(C)c2c1=O` [Compound 276] the value was below 100 nM.
Turning to `Cc1cccc2cc(Cn3nc(I)c4c(N)ncnc43)n(C3CCCC3)c(=O)c12` [Compound 57], the EC50 in the assay with B cell was below 10000 nM.
In the assay on B cell, `Cc1cccc2cc(Cn3nc(-c4cn[nH]c4)c4c(N)ncnc43)n(-c3ccccc3C(C)C)c(=O)c12` [Compound 185] displayed a 50% effective concentration (EC50) below 100 nM.
On the same count and under the same terms, for `Cc1cccc2cc(Cn3nc(I)c4c(N)ncnc43)n(C)c(=O)c12` [Compound 107] the value was below 1000 nM; for `Cc1cccc2cc(Cn3nc(-c4ccc5nc(N)[nH]c5c4)c4c(N)ncnc43)n(-c3ccccc3)c(=O)c12` [Compound 302], below 100 nM.
The compound `Cc1ccccc1-n1c(Cn2nc(/C=C/C(N)=O)c3c(N)ncnc32)cc2cccc(C)c2c1=O` [Compound 174] came in with an EC50 in the assay with B cell below 100 nM.
In the assay on B cell, `CC(Nc1ncnc2[nH]cnc12)c1cc2ccccc2c(=O)n1-c1ccccc1` (centres unmarked) [Compound 220] yielded a half-maximal effective concentration (EC50) below 100 nM.
`Cc1cccnc1-n1c(Cn2nc(-c3cccc(O)c3)c3c(N)ncnc32)cc2cccc(C)c2c1=O` [Compound 73] gave a 50% effective concentration (EC50) with B cell below 100 nM.
On the same count and under the same terms, in the case of `Cc1cccc2cc(Cn3nc(-c4cccc(F)c4)c4c(N)ncnc43)n(-c3ccccc3F)c(=O)c12` [Compound 40] it was below 10000 nM.
Compound `Cc1cccnc1-n1c(Cn2nc(-c3ccc(F)c(O)c3)c3c(N)ncnc32)cc2cccc(C)c2c1=O` [Compound 68] showed an EC50 in the assay with B cell below 100 nM.
In turn, `Cc1cccc2cc(Cn3nc(-c4cc(O)cc(F)c4)c4c(N)ncnc43)n(C)c(=O)c12` [Compound 125] had a half-maximal effective concentration (EC50) with B cell below 100 nM.
As to `C=Cc1nn(Cc2cc3cccc(C)c3c(=O)n2-c2ccccc2)c2ncnc(N)c12` [Compound 301], the EC50 in the assay with B cell was below 100 nM.
`Cc1ccccc1-n1c(Cn2nc(C(N)=O)c3c(N)ncnc32)cc2cccc(C)c2c1=O` [Compound 298] had an EC50 with B cell below 100 nM.
`Cc1ccccc1-n1c(Cn2nc(C#CCO)c3c(N)ncnc32)cc2cccc(C)c2c1=O` [Compound 11]: the EC50 with B cell is below 1000 nM.
For `Cc1cccc2cc(Cn3nc(-c4ccc(O)cc4)c4c(N)ncnc43)n(-c3ccccc3F)c(=O)c12` [Compound 46], in the assay on B cell, the EC50 is below 1000 nM.
`Cc1cccc2cc(Cn3nc(C#CC4CC4)c4c(N)ncnc43)n(-c3ccccc3F)c(=O)c12` [Compound 4] returned an EC50 with B cell below 1000 nM.
As to `Cc1cccc2cc(Cn3nc(C#C[C@@H](C)O)c4c(N)ncnc43)n(C3CCCCC3)c(=O)c12` [Compound 112], the concentration giving a half-maximal response (EC50) in the assay with B cell is below 10000 nM.
Consider `COc1ccccc1-n1c(Cn2nc(C#C[C@@H](C)O)c3c(N)ncnc32)cc2cccc(C)c2c1=O` [Compound 80], for which the EC50 with B cell is below 1000 nM.
As for `Cc1ccccc1-n1c(Cn2nc(-c3ccc4ncnc(N)c4c3)c3c(N)ncnc32)cc2cccc(C)c2c1=O` [Compound 152], the concentration giving a half-maximal response (EC50) in the assay with B cell is below 1000 nM.
In the assay on B cell, `Cc1cccc2cc(C(C)Nc3ncnc4[nH]cnc34)n(C3CCN(C)CC3)c(=O)c12` (centres unmarked) [Compound 227] yielded an EC50 below 100 nM.
On to `Cc1cccc2cc(C(C)Nc3ncnc4[nH]cnc34)n(-c3c(F)cccc3F)c(=O)c12` (centres unmarked) [Compound 216], for which the EC50 in the assay on B cell is below 100 nM.
`Cc1ccccc1-n1c(Cn2nc(C#C[C@@H](C)O)c3c(N)ncnc32)cc2cccc(C)c2c1=O` [Compound 37] had a concentration for a half-maximal effect (EC50) in the assay on B cell below 100 nM.
In the assay on B cell, `Cc1ccccc1-n1c(Cn2nc(-c3cccc(O)c3)c3c(N)ncnc32)cc2ccccc2c1=O` [Compound 51] came in with an EC50 below 1000 nM.
For `Cc1ccccc1-n1c(Cn2nc(-c3ccc4nc(N)oc4c3)c3c(N)ncnc32)cc2cccc(C)c2c1=O` [Compound 243], in the assay with B cell, the EC50 is below 1000 nM.
The compound `CCc1nn(Cc2cc3cccc(C)c3c(=O)n2-c2ccccc2)c2ncnc(N)c12` [Compound 303] displayed an EC50 in the assay with B cell below 100 nM.
Consider `Cc1ccccc1-n1c(Cn2nc(-c3ccc(Cl)c(O)c3)c3c(N)ncnc32)cc2cccc(C)c2c1=O` [Compound 23], for which, in the assay with B cell, the concentration giving a half-maximal response (EC50) was below 100 nM.
As for `Cc1cccc2cc(Cn3nc(-c4cccc(O)c4)c4c(N)ncnc43)n(-c3ccccc3OCCN3CCOCC3)c(=O)c12` [Compound 109], in the assay with B cell, the EC50 was below 100 nM.
Same read-out and setting: in the case of `Cc1cccc2cc(Cn3nc(-c4cccc(O)c4)c4c(N)ncnc43)n(-c3ccccc3Cl)c(=O)c12` [Compound 96] it was below 100 nM; in that of `CC(=O)Nc1nc2ccc(-c3nn(Cc4cc5cccc(Cl)c5c(=O)n4C(C)C)c4ncnc(N)c34)cc2s1` [Compound 157], below 100 nM; in that of `Cc1cccc2cc([C@H](C)Nc3ncnc4[nH]cnc34)n(C(C)C)c(=O)c12` [Compound 230], below 100 nM.
In turn, `Cc1cccc2cc(C(C)Nc3ncnc4[nH]cnc34)n(CCN3CCOCC3)c(=O)c12` (centres unmarked) [Compound 232] registered a concentration for a half-maximal effect (EC50) with B cell below 100 nM.
The compound `CC(=O)Nc1nc2ccc(-c3nn(Cc4cc5cccc(C)c5c(=O)n4-c4cccc(F)c4)c4ncnc(N)c34)cc2s1` [Compound 178] registered an EC50 in the assay with B cell below 100 nM.
Turning to `Cc1ccccc1-n1c(Cn2nc(-c3ccc(O)c(F)c3)c3c(N)ncnc32)cc2cccc(C)c2c1=O` [Compound 30], the concentration giving a half-maximal response (EC50) with B cell was below 1000 nM.
The same measure, in the same setting: for `Cc1cccc2cc(Cn3nc(-c4cc(O)cc(F)c4)c4c(N)ncnc43)n(-c3ccccc3O)c(=O)c12` [Compound 90] the value was below 100 nM; for `Cc1ccccc1-n1c(Cn2nc(Cl)c3c(N)ncnc32)cc2cccc(C)c2c1=O` [Compound 20], below 1000 nM; for `Cc1ccccc1-n1c(Cn2nc(-c3nn[nH]n3)c3c(N)ncnc32)cc2cccc(C)c2c1=O` [Compound 207], below 10000 nM.
In the assay with B cell, `CC(C)n1c(Cn2nc(-c3cccc(O)c3)c3c(N)ncnc32)cc2ccccc2c1=O` [Compound 135] yielded an EC50 below 1000 nM.
On to `Cc1ccccc1-n1c(Cn2nc(I)c3c(N)ncnc32)cc2cccc(F)c2c1=O` [Compound 42], for which the EC50 in the assay with B cell is below 1000 nM.
In the assay on B cell, `Cc1cccc2cc(Cn3nc(-c4cn[nH]c4)c4c(N)ncnc43)n(-c3ccccc3Cl)c(=O)c12` [Compound 188] displayed an EC50 below 100 nM.
Take `CCC(Nc1ncnc2[nH]cnc12)c1cc2cccc(C)c2c(=O)n1C(C)C` (centres unmarked) [Compound 219]: the EC50 with B cell is below 100 nM.
As for `Cc1cccnc1-n1c(Cn2nc(Br)c3c(N)ncnc32)cc2cccc(C)c2c1=O` [Compound 17], in the assay with B cell, the half-maximal effective concentration (EC50) was below 100 nM.
`Cc1ccccc1-n1c(Cn2nc(/C=C3/SC(=O)NC3=O)c3c(N)ncnc32)cc2cccc(C)c2c1=O` [Compound 173] registered a concentration for a half-maximal effect (EC50) in the assay with B cell below 100 nM.
`Cc1cccc2cc(Cn3nc(-c4cccc(Cl)c4)c4c(N)ncnc43)n(-c3ccccc3F)c(=O)c12` [Compound 38] displayed a half-maximal effective concentration (EC50) in the assay on B cell above 10000 nM.
Same read-out and setting: for `Cc1cccc2cc(C(C)Nc3ncnc4[nH]cnc34)n(-c3ccccc3F)c(=O)c12` (centres unmarked) [Compound 167] the value was below 100 nM; for `Cc1cccc2cc([C@H](C)Nc3ncnc4[nH]ccc34)n(-c3ccccc3)c(=O)c12` [Compound 247], below 100 nM.
With `Cc1cccc2cc([C@H](C)Nc3ncnc4[nH]nc(C#N)c34)n(-c3ccccc3)c(=O)c12` [Compound 255], the EC50 in the assay on B cell is below 100 nM.
On the same count and under the same terms, in the case of `Cc1cccc2cc(Cn3nc(-c4cc(O)cc(F)c4)c4c(N)ncnc43)n(C3CCCCC3)c(=O)c12` [Compound 110] it was below 1000 nM.
